Measurements published in ChEMBL document CHEMBL1201862, “PubChem BioAssay data set” (2004).
Active and inactive are the calls of the source.

Experiments:
[1] = biological target: Dual specificity protein phosphatase 3 (Homo sapiens, UniProt P51452); assay: VHR phosphatase inhibition, dose response, selectivity assay for STEP inhibitor project, biochemical (AID 602374); type: functional; details: read-out: IC50_Mean
[2] = biological target: T1, Tyrosine-protein phosphatase non-receptor type 5 (Homo sapiens, UniProt P54829); assay: PTPN5 enzyme inhibition – biochemical, fluorescence intensity, uHTS hits, confirmation (AID 602372); type: functional; details: read-out: IC50_Mean
T1 sequence (P54829 whole entry): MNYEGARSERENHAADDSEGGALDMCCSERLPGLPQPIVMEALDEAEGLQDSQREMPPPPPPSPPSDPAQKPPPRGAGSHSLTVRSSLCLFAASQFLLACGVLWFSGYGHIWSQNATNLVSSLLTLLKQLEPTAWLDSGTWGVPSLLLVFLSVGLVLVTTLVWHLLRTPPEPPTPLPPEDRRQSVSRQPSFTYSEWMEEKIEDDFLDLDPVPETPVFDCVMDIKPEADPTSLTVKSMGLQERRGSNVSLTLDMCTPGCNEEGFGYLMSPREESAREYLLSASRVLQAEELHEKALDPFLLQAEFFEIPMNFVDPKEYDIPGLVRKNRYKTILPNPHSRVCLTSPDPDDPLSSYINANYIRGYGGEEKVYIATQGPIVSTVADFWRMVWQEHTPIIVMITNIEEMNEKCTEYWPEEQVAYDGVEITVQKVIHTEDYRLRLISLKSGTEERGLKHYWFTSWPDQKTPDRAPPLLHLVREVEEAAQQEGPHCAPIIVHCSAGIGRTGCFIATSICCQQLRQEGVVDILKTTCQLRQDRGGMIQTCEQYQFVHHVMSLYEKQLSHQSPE

[3] = biological target: T2, Tyrosine-protein phosphatase non-receptor type 11 (Homo sapiens, UniProt Q06124); assay: PTPN11 enzyme inhibitors – biochemical, selectivity assay for STEP inhibitor project, dose response (AID 602367); type: functional; details: read-out: IC50_Mean
T2 sequence (Q06124 whole entry): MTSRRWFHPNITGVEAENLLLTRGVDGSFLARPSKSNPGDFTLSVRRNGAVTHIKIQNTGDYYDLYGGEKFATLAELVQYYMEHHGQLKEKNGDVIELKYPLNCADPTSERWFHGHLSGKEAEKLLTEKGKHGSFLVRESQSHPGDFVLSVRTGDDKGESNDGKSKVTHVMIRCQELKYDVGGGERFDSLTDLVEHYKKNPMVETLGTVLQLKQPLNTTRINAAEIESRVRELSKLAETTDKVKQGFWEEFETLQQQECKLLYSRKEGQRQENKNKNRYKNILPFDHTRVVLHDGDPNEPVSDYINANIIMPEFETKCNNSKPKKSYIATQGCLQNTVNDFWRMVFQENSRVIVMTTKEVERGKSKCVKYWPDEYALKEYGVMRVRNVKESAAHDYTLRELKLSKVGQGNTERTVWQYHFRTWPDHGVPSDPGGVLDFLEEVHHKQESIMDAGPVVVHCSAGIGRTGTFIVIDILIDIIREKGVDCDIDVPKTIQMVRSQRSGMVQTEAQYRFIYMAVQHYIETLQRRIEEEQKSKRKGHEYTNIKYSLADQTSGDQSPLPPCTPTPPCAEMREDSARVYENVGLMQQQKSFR

[4] = biological target: T3, Carboxy-terminal domain RNA polymerase II polypeptide A small phosphatase 1 (Homo sapiens, UniProt Q9GZU7); assay: CTDSP1 inhibitors, concentration-response, biochemical, absorbance readout, ultra-high-throughput screen actives (AID 540297); type: functional
T3 sequence (Q9GZU7 whole entry): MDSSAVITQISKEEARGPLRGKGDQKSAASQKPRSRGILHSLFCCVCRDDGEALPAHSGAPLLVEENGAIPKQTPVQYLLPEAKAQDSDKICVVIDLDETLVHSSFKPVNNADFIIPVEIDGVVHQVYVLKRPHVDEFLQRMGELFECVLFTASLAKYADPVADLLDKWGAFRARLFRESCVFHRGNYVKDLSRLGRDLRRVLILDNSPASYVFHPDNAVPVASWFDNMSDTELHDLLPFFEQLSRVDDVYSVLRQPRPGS

Nonstructural protein 1 = Nonstructural protein 1 (Influenza A virus, UniProt Q194T2); type: functional, Influenza A virus (A/California/07/2009(H1N1))
Sequence of Nonstructural protein 1 (Q194T2 whole entry): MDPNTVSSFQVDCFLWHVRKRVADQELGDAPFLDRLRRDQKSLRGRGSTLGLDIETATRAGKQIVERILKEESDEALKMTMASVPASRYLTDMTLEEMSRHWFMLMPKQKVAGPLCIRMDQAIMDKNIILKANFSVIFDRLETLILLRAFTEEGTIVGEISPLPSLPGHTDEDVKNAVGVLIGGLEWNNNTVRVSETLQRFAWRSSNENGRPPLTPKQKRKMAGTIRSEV

[5] = biological target: T4, Histone-lysine N-methyltransferase NSD2 (Homo sapiens, UniProt O96028); type: biochemical
T4 sequence (O96028 whole entry): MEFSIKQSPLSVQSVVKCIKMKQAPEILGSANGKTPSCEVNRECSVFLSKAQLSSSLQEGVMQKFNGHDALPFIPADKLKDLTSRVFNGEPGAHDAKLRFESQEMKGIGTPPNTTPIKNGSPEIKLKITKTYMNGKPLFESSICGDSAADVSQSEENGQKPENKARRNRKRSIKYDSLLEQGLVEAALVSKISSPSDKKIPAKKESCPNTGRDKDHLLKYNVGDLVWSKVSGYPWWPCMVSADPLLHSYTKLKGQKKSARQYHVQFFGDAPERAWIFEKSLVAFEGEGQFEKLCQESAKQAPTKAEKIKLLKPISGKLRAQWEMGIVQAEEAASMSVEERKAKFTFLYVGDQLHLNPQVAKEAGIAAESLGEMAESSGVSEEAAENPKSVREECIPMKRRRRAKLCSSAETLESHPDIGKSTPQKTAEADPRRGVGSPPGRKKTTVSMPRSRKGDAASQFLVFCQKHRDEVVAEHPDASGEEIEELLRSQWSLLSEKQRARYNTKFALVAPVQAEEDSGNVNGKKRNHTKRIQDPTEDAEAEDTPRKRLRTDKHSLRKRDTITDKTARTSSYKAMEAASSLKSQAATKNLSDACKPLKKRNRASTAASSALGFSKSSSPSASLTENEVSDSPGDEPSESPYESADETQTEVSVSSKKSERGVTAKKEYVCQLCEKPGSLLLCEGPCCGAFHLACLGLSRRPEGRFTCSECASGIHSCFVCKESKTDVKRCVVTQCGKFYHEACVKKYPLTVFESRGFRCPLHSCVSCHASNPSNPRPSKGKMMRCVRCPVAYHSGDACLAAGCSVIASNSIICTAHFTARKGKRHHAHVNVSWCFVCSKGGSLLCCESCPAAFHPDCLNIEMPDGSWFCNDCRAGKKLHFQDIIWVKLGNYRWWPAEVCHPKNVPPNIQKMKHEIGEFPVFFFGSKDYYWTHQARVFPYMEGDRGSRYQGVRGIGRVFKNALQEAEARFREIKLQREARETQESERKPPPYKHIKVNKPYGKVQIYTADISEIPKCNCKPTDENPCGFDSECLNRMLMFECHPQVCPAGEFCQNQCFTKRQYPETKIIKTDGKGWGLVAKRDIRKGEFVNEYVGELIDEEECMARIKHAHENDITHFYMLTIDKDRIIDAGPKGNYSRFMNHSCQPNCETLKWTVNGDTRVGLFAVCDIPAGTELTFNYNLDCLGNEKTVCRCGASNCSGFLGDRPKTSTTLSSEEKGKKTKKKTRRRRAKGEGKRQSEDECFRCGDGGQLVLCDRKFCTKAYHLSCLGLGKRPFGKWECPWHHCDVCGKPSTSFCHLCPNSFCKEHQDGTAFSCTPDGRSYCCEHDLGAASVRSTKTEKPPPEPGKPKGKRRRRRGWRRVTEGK

[6] = biological target: Ras and Rab interactor 1/Tyrosine-protein kinase ABL1 (Homo sapiens, UniProt P00519+Q13671); assay: biochemical; type: functional;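 note: biochemical TR-FRET dose-response test measuring inhibition of binding between Rin1 and Abl proteins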
Sequence of Ras and Rab interactor 1/Tyrosine-protein kinase ABL1 (P00519 whole entry): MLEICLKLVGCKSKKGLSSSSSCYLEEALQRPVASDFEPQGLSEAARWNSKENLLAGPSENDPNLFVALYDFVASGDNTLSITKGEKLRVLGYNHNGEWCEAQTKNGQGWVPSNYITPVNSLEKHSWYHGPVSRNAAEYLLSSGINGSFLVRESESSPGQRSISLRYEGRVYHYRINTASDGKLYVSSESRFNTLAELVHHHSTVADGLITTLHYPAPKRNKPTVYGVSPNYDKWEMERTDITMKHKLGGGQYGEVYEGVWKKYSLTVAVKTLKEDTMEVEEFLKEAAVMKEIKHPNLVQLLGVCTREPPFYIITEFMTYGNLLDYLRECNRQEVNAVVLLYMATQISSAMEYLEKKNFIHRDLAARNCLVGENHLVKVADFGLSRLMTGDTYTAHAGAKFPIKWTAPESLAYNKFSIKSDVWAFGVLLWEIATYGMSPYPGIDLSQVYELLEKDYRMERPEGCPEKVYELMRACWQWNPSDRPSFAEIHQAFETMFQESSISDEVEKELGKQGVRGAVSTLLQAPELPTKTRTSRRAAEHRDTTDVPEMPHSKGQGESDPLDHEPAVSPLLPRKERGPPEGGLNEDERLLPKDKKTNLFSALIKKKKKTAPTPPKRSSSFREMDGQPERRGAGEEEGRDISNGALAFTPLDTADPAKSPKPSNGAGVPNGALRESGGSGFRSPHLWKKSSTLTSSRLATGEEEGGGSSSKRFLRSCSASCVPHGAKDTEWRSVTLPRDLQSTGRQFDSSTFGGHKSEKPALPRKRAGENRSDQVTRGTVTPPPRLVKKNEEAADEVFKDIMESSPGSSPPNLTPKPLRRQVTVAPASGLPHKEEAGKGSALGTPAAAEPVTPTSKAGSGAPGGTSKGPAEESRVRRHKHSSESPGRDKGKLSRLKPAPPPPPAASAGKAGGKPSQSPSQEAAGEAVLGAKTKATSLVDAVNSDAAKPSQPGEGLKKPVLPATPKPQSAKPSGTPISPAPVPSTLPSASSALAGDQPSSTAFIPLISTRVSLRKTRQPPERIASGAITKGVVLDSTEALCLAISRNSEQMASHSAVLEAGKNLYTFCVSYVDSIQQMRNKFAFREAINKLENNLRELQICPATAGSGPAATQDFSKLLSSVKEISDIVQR
Sequence of Ras and Rab interactor 1/Tyrosine-protein kinase ABL1 (Q13671 whole entry): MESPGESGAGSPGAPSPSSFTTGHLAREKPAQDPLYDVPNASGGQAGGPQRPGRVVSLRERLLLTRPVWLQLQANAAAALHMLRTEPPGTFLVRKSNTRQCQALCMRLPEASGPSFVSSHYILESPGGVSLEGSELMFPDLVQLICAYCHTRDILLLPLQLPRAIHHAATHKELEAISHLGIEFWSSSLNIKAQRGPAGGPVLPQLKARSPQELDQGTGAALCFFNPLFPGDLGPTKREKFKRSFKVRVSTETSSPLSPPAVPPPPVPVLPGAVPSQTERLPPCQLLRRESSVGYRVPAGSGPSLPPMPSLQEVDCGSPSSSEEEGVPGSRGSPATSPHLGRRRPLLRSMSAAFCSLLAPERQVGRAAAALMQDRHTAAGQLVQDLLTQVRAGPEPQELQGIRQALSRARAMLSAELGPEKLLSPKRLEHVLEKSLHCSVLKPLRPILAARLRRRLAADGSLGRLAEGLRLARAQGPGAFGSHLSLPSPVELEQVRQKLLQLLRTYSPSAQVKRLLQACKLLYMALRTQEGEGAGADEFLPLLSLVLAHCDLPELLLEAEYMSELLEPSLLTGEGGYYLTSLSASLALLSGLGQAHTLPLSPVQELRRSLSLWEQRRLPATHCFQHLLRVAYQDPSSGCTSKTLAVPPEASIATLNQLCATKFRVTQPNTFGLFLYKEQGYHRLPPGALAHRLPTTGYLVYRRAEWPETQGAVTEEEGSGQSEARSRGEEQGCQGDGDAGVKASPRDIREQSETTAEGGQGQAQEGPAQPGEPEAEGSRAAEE

Cytochrome P450 2C9 = Cytochrome P450 2C9 (Homo sapiens, UniProt P11712)
Sequence of Cytochrome P450 2C9 (P11712 whole entry): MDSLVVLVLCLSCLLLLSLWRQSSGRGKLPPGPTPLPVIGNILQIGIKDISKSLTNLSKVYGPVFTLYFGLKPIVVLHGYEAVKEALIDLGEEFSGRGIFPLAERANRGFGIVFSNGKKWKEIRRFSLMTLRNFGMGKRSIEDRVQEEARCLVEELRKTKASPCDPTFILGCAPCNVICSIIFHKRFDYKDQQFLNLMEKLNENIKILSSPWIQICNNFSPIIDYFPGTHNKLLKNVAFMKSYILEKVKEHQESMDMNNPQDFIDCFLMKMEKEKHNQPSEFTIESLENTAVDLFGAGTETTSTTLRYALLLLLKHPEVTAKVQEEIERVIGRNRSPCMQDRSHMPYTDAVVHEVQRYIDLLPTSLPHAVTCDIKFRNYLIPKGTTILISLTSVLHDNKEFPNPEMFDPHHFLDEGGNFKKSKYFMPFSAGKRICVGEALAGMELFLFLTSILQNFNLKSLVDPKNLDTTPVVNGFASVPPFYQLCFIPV

[7] = biological target: 26S proteasome non-ATPase regulatory subunit 14 (Homo sapiens, UniProt O00487); assay: inhibition of proteasome subunit RPN11 – biochemical, fluorescence polarization, uHTS hits, confirmation (AID 602368); type: functional
Sequence of 26S proteasome non-ATPase regulatory subunit 14 (O00487 whole entry): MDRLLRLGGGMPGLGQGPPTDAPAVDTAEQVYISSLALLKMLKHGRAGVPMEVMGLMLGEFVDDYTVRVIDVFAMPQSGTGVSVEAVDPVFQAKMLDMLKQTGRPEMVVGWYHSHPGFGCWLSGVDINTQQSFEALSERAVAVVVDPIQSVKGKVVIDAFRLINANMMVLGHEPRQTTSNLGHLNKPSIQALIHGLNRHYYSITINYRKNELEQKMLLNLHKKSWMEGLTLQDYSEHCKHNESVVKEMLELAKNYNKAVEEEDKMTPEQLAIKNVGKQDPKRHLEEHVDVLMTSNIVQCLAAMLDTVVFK

Cytochrome P450 2C19 = Cytochrome P450 2C19 (Homo sapiens, UniProt P33261); assay: Cytochrome panel assay with activity outcomes. Panel member name: p450-cyp2c19 Compounds with AC50 equal or less than 10 uM are considered active; type: functional; details: read-out: AC50
Sequence of Cytochrome P450 2C19 (P33261 whole entry): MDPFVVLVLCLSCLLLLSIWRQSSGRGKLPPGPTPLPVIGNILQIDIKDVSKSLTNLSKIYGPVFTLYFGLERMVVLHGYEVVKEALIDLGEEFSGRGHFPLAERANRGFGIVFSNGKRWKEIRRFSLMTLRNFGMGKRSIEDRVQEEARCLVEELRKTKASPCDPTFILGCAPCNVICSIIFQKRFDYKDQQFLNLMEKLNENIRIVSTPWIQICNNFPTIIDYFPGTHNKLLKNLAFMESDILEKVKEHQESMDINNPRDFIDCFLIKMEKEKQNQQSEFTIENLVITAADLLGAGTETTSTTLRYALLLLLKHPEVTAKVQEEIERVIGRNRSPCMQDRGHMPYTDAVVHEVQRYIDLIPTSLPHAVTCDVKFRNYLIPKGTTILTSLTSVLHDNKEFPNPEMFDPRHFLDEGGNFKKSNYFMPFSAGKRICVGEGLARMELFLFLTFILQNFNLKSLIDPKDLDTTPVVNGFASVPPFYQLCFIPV

[8] = biological target: 72 kDa type IV collagenase (Homo sapiens, UniProt P08253); assay: Dose Response validation of uHTS RPN11 inhibitor hits using a MMP-2 Fluorescence assay.; type: functional
Sequence of 72 kDa type IV collagenase (P08253 whole entry): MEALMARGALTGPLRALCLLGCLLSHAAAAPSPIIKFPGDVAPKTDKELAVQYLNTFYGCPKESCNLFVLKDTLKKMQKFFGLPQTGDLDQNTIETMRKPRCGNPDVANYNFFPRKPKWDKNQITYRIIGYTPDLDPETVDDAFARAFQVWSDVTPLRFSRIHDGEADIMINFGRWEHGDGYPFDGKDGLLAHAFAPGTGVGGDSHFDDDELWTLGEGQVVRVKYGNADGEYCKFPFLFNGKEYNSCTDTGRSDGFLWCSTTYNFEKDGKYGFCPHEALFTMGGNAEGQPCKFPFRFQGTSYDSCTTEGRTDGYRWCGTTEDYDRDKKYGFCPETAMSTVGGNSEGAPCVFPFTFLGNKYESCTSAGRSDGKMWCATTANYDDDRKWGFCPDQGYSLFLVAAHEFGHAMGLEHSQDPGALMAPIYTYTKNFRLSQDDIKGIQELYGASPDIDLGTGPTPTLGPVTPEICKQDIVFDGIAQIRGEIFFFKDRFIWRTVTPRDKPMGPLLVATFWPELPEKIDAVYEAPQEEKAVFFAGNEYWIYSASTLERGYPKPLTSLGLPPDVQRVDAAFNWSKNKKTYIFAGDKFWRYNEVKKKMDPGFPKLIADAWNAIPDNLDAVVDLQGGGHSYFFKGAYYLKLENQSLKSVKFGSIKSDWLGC

Prothrombin = Prothrombin (Bos taurus, UniProt P00735); assay: thrombin protease inhibitors – biochemical, fluorescence polarization, uHTS hits, dose response (AID 602369); type: functional
[9] = biological target: T5, Trace amine-associated receptor 1 (Homo sapiens, UniProt Q96RJ0); assay: Fluorescence-based cell-based high throughput dose response assay to identify agonists of the human trace amine associated receptor 1 (TAAR1).; type: functional
T5 sequence (Q96RJ0 whole entry): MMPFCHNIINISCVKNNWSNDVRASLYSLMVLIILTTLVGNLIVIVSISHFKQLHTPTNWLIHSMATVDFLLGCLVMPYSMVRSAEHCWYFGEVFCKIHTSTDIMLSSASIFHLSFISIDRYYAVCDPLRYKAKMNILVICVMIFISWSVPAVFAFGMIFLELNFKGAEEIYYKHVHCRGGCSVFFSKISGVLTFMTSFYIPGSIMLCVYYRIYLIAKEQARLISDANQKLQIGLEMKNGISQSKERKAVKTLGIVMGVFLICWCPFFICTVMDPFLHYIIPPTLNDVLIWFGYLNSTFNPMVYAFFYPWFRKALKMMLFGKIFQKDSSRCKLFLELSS

cells [10] = type: functional, cell-based
cells [11] = type: functional, cell-based; remark: listed apart in the source
[12] = biological target: T5, Trace amine-associated receptor 1; assay: Counterscreen for agonists of the human trace amine associated receptor 1 (hTAAR1): Fluorescence-based cell-based high throughput dose response assay to identify hTAAR1 agonist that also desensitize TAAR1 receptor response.; type: functional
[13] = HIV-1 AD8 envelope cell-cell fusion blockers – cherry-pick, dose response (AID 652062); type: functional, cell-based;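 note: luciferase signal from cell-cell fusion driven by HIV-1 clade B AD8 Env; potency is for inhibitors of fusion seen as a drop in luminescence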
[14] = off-target signal loss in HeLa-CEM21 co-culture – HeLa F-luc CTL cells, cherry-picked, counter-screen for HIV-1 Env fusion inhibitor project, dose response (AID 652040); type: functional, cell-based;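 note: potency for signal decrease marking cytotoxic or nonspecific inhibition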
[15] = blockers of HIV-1 ZM109 envelope-driven cell-cell fusion – HeLa effector, CEM target cells, luciferase, cherry-pick, dose response (AID 652058); type: functional, cell-based;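 note: luciferase signal from HIV-1 Env mediated cell-cell fusion of effector and target cells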
[16] = blockers of HIV-1 envelope-mediated cell-cell fusion – cherry-pick, dose response (AID 652057); type: functional, cell-based
[17] = biological target: Peroxisome proliferator-activated receptor gamma/Nuclear receptor corepressor 2 (Homo sapiens, UniProt P37231+Q9Y618); assay: Counterscreen for NR2E3 inverse agonists: TR-FRET-based biochemical high throughput dose response assay to identify inverse agonists of the interaction between peroxisome proliferator-activated receptor gamma (PPARg) and nuclear receptor co-repressor 2 (NCOR2).; type: functional
[18] = biological target: Photoreceptor-specific nuclear receptor (Homo sapiens, UniProt Q9Y5X4); assay: ligands suppressing NR2E3 nuclear receptor activity – biochemical, TR-FRET, dose response (AID 463256); type: functional
Sequence of Photoreceptor-specific nuclear receptor (Q9Y5X4 whole entry): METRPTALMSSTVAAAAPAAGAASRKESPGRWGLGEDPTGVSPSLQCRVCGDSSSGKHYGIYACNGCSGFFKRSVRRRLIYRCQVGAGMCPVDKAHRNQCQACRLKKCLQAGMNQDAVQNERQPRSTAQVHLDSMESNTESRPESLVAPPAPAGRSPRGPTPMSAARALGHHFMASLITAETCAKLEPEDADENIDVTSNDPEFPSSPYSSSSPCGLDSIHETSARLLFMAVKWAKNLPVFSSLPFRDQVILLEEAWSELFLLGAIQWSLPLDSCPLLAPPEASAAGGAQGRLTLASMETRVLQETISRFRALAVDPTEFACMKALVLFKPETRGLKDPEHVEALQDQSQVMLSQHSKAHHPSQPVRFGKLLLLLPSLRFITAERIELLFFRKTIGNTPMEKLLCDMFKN

Galanin receptor type 3 = biological target: T6, Galanin receptor type 3 (Homo sapiens, UniProt O60755); assay: Fluorescence-based cell-based primary high throughput dose response assay to identify antagonists of the Galanin Receptor 3 (GalR3).; type: functional
T6 sequence (O60755 whole entry): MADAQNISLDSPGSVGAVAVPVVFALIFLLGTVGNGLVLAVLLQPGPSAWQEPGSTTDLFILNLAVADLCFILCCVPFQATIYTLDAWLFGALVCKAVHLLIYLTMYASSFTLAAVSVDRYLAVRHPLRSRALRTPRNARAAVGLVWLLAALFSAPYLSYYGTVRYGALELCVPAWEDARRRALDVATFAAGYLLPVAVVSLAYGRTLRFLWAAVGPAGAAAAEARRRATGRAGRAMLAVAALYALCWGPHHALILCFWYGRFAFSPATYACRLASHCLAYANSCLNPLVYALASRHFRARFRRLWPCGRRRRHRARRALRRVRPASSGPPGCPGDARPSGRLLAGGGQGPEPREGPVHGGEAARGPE

cells [19] = type: functional, cell-based; details: HEK-CNG

Sequence of Dual specificity protein phosphatase 3 (P51452 whole entry): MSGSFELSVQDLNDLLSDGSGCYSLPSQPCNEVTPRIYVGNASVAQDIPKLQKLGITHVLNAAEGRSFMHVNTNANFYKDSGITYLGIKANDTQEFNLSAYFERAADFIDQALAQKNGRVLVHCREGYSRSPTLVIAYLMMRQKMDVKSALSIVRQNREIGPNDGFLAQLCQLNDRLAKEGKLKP

CC(C)(C)C(=O)Nc1ccc(C(=O)Nc2cccc(Oc3ccc(C(=O)O)c(C(=O)O)c3)c2)cc1
IC50 [1]: 38.4 µM (inactive)
IC50 [2]: 13.6 µM (active)
IC50 [3]: 16.5 µM (active)

O=C(COc1ccc([N+](=O)[O-])cc1)Nc1nnc(-c2cccnc2)s1
IC50 [1]: 4.25 µM (active)
IC50 [2]: 59.9 µM (inactive)
IC50 [4]: 5.51 µM (active)
IC50 [3]: 2.44 µM (active)

CC1NC(=O)NC1CCCCCC(=O)Nc1ccc(F)cc1 (stereo not given)
IC50 (Nonstructural protein 1): 0.979 µM (active)
AC50 [5]: 0.113 µM (active)
IC50 [6]: 0.0187 µM (active)

CN(C(=O)c1ccc(NC(=O)Cc2ccc(NC(=O)C3CCN(C(=O)c4ccccc4)CC3)cc2)cc1)C1CC1
IC50 [6]: 0.407 µM (active)

O=C(NN=C1c2ccccc2-c2ccccc21)c1ccccn1
AC50 (Cytochrome P450 2C9): 7.08 µM (inconclusive)
IC50 [7]: 24.4 µM (active)
AC50 (Cytochrome P450 2C19): 2.82 µM (inconclusive)
IC50 [8]: > 100 µM (inactive)
IC50 (Prothrombin): > 100 µM (inactive)

c1ccc2c(c1)CCN(c1nc3cc4c(cc3s1)OCO4)C2
EC50 [9]: 0.751 µM (active)
IC50 (cells [10]): > 29.9 µM (inactive)
EC50 (cells [11]): > 29.9 µM (inactive)
IC50 [12]: 2.96 µM (active)

CCOc1ccc(C(C)=O)cc1COC(=O)c1ccccc1C(=O)N(C)Cc1ccccc1
AC50 [13]: 6.39 µM (active)
AC50 [14]: 5.14 µM (active)
AC50 [15]: 4.87 µM (active)
AC50 [16]: 3.55 µM (active)

COc1cc(C(C)=O)ccc1OCC(O)CNCC(O)c1ccccc1 (stereo not given)
EC50 [9]: 2.13 µM (active)
IC50 (cells [10]): > 29.9 µM (inactive)
EC50 (cells [11]): > 29.9 µM (inactive)
IC50 [12]: 12.3 µM (inactive)

O=C(Nc1nc(-c2nc3ccccc3s2)cs1)c1ccco1
IC50 [17]: 3.92 µM (active)
IC50 [7]: 10.1 µM (active)
IC50 [18]: 2.44 µM (active)
IC50 [8]: > 100 µM (inactive)
IC50 (Prothrombin): 75.1 µM (active)

O=C(C(=O)c1cc(Br)ccc1O)c1cc(Br)ccc1O
IC50 (Galanin receptor type 3): 1.1 µM (active)
EC50 (cells [19]): > 29.9 µM (inactive)
